The results in this text go back to patent US10005824B2, “Selective PYY compounds and uses thereof” (Novo Nordisk A/S, priority 2015, dated 2018).

Each structure is given as a SMILES string.

For one assay, the target named is T1, human NPY Y2 receptor (Homo sapiens, UniProt P49146).
T1 construct: host or cells: HEK-293 cells that also express a cAMP-sensitive calcium channel
T1 sequence (P49146 1-381): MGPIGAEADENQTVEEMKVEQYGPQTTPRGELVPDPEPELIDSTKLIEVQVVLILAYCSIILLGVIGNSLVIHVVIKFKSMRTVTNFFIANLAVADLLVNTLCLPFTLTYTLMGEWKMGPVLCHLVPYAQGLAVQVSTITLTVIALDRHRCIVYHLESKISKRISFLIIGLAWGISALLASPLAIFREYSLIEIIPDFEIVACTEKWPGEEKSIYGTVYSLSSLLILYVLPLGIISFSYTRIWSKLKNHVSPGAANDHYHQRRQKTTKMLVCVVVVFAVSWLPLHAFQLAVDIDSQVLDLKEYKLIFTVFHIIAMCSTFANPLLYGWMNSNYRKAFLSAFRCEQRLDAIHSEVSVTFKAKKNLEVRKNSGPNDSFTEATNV
Briefly: Actone functional potency assay (Y2 in vitro potency, whole cell). In kind it is cell-based. From the text:
The purpose of this example is to test the activity, or potency, of the PYY compounds in vitro. The Y2 in vitro potency is the measure of the activation of the human Y2 receptor subtype in a whole cell assay.
Actone Functional Potency Assay
The Neuropeptide Y (NPY) receptors are Gi-coupled seven trans-membrane receptors that mainly signal through the cAMP dependent pathway by inhibiting adenylate cyclase activity which results in a decrease of cAMP production from ATP. The Actone assay is based on a modified calcium channel that has a selective binding for cAMP, resulting in cellular calcium influx, detected by a calcium responsive dye. In order to measure decreased levels of cAMP, as result of NPY receptor activation, the β1/β2-adrenoreceptor agonist, isoproterenol, is added to activate adenylate cyclase and increases cAMP levels in the cell. Decreased cellular calcium concentrations, reflecting a decrease of cAMP levels due to NPY receptor activation, is detected as a decrease in fluorescence from the calcium sensitive dye.

The target in the next assay is T2, human Y1 receptor (Homo sapiens, UniProt P25929).
T2 construct: expressed in transfected cells; host or cells: BHK-21 clone 6-482-8, IPTG-induced (membrane preparation)
T2 sequence (P25929 1-384): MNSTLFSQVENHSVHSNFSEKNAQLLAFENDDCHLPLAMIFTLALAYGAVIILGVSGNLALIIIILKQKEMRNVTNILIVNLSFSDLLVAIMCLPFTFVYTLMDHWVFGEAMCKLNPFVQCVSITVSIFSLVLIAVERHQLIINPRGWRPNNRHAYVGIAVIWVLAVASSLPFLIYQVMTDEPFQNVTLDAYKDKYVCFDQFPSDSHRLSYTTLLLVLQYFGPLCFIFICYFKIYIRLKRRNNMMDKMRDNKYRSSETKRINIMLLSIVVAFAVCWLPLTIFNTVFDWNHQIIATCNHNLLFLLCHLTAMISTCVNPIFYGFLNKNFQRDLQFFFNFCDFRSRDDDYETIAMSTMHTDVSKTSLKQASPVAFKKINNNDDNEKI
Nature of the assay: Scintillation proximity assay (SPA) receptor binding, Y1. The procedure:
(§1) The purpose of this example is to test the in vitro binding of the PYY compounds to the Y1, Y2, Y4 and Y5 receptor subtypes, respectively. The receptor binding affinity is a measure of affinity of a compound for the human Y1, Y2, Y4 and Y5 receptor subtypes, respectively.
(§2) Scintillation Proximity Assay (SPA)
(§3) NPY-Receptor Expressing Cell Lines.
(§4) All cells were cultured at +37° C. in a humidified atmosphere with 5% CO2. […] CHO-K1 cells stably expressing the human Y2 receptor (P49146, NPY2R_HUMAN, Uniprot) were cultured in DMEM F-12 with 10% FBS, 1% P/S, 150 μg/ml Hygromycin B and 10 μg/ml Puromycin antibiotic. CHO-K1 cells stably expressing the human Y4 receptor (P50391, NPY4R_HUMAN, Uniprot) were cultured in DMEM F-12 with 10% FBS, 1% P/S, 10 μg/ml Puromycin. HEK-293 cells stably expressing the human Y5 receptor (Q15761, NPY5R_HUMAN, Uniprot) were cultured in DMEM F-12 medium containing 10% FBS, 1% Penicillin-Streptomycin, 250 μg/ml G418 and 1 μg/ml puromycin.
The homogenate was centrifuged at 35000 g using an ultracentrifuge for 10 minutes at +4° C. and the supernatant was discarded and fresh homogenization buffer added. Homogenization of the pellet was repeated a total of three times.
Human Y receptor SPA binding assay were performed in white 96-well plates in a total volume of 200 μl per well.
(§5) Plates were sealed and incubated at +25° C. for 2 hours in a plate shaker set at 400 rpm and thereafter centrifuged at 1500 rpm for 10 minutes prior to reading of luminescence on a microplate scintillation and luminescence counter. […] Displacement of radioligand was measured as reduction in luminescence and IC50 values were calculated by nonlinear regression analysis of sigmoidal dose-response curves.
In general terms: Scintillation proximity formats need no separation of bound from free tracer.

The next assay addresses T3, human Y5 receptor (Homo sapiens, UniProt Q15761).
T3 construct: expressed in transfected cells; host or cells: HEK-293 (membrane preparation)
T3 sequence (Q15761 1-445): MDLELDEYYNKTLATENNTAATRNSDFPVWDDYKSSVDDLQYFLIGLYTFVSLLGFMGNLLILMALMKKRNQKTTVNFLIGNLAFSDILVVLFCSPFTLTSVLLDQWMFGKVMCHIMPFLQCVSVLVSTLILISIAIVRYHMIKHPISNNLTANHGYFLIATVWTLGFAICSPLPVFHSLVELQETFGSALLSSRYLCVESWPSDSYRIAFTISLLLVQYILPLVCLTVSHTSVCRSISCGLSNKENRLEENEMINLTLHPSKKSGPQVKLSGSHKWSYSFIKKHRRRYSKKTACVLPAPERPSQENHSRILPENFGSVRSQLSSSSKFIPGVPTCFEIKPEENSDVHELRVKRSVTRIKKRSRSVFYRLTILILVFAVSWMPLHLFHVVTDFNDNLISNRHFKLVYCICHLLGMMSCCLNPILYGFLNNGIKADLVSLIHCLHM
Nature of the assay: Scintillation proximity assay (SPA) receptor binding, Y5. Conditions: membranes of HEK-293 cells, [125I]-PYY(1-36). The procedure:
as §1, §2, §3
as §4, with “puromycin. […]” for “puromycin.”
as §5

Regarding `CC(C)CC(=O)N[C@@H](CCCNC(=N)N)C(=O)N1CCC[C@H]1C(=O)N[C@@H](CCC(=O)O)C(=O)N[C@@H](C)C(=O)N1CCC[C@H]1C(=O)NCC(=O)N[C@@H](CCCCNC(=O)CC[C@H](NC(=O)COCCOCCNC(=O)CC[C@H](NC(=O)CCCCCCCCCCCCCCCCC(=O)O)C(=O)O)C(=O)O)C(=O)N[C@@H](CC(=O)O)C(=O)N[C@@H](C)C(=O)N[C@@H](CO)C(=O)N1CCC[C@H]1C(=O)N[C@@H](CCC(=O)O)C(=O)N[C@@H](CCC(=O)O)C(=O)N[C@@H](CC(C)C)C(=O)N[C@@H](CCC(N)=O)C(=O)N[C@@H](CCCNC(=N)N)C(=O)N[C@@H](Cc1ccc(O)cc1)C(=O)N[C@@H](Cc1ccc(O)cc1)C(=O)N[C@@H](C)C(=O)N[C@@H](CCC(=O)O)C(=O)N[C@@H](CC(C)C)C(=O)N[C@@H](CCCNC(=N)N)C(=O)N[C@@H](Cc1c[nH]cn1)C(=O)N[C@@H](Cc1ccc(O)cc1)C(=O)N[C@@H](Cc1ccc(O)cc1)C(=O)N[C@@H](CC(N)=O)C(=O)N[C@@H](Cc1c[nH]c2ccccc12)C(=O)N[C@@H](CC(C)C)C(=O)N[C@H](C(=O)N[C@@H](CCCNC(=N)N)C(=O)N[C@@H](CCC(N)=O)C(=O)N[C@@H](CCCNC(=N)N)C(=O)N[C@@H](Cc1ccc(O)cc1)C(N)=O)[C@@H](C)O` [Compound 53, N{alpha-4}-(3-Methylbutanoyl)-N{Epsilon-10}-[(4S)-4-carboxy-4-[[2-[2-[2-[[(4S)-4-carboxy-4-(17-carboxyheptadecanoylamino)butanoyl]amino]ethoxy]ethoxy]-acetyl]amino]butanoyl]-[Arg4,Lys10,Gln18,Glu23,Tyr28,Trp30,Leu31]-PYY(4-36)], the midpoint of the response at human NPY Y2 receptor, the EC50, lay at 0.77 nM. At human Y1 receptor, the Ki (in general, a measure of affinity in units of concentration, obtained from inhibition or displacement) is above 10000 nM.
For `CC(C)CC(=O)N[C@@H](CCCNC(=N)N)C(=O)N1CCC[C@H]1C(=O)N[C@@H](CCC(=O)O)C(=O)N[C@@H](C)C(=O)N1CCC[C@H]1C(=O)N1CCC[C@H]1C(=O)N[C@@H](CCCCNC(=O)CC[C@H](NC(=O)COCCOCCNC(=O)CC[C@H](NC(=O)CCCCCCCCCCCCCCCCC(=O)O)C(=O)O)C(=O)O)C(=O)N[C@@H](CC(=O)O)C(=O)N[C@@H](C)C(=O)N[C@@H](CO)C(=O)N1CCC[C@H]1C(=O)N[C@@H](CCC(=O)O)C(=O)N[C@@H](CCC(=O)O)C(=O)N[C@@H](CC(C)C)C(=O)N[C@@H](CCC(N)=O)C(=O)N[C@@H](CCCNC(=N)N)C(=O)N[C@@H](Cc1ccc(O)cc1)C(=O)N[C@@H](Cc1ccc(O)cc1)C(=O)N[C@@H](C)C(=O)N[C@@H](CO)C(=O)N[C@@H](CC(C)C)C(=O)N[C@@H](CCCNC(=N)N)C(=O)N[C@@H](Cc1c[nH]cn1)C(=O)N[C@@H](Cc1ccc(O)cc1)C(=O)N[C@@H](Cc1ccc(O)cc1)C(=O)N[C@@H](CC(N)=O)C(=O)N[C@@H](Cc1c[nH]c2ccccc12)C(=O)N[C@@H](CC(C)C)C(=O)N[C@H](C(=O)N[C@@H](CCCNC(=N)N)C(=O)N[C@@H](CCC(N)=O)C(=O)N[C@@H](CCCNC(=N)N)C(=O)N[C@@H](Cc1ccc(O)cc1)C(N)=O)[C@@H](C)O` [Compound 56, N{alpha-4}-(3-Methylbutanoyl)-N{Epsilon-10}-[(4S)-4-carboxy-4-[[2-[2-[2-[[(4S)-4-carboxy-4-(17-carboxyheptadecanoylamino)butanoyl]amino]ethoxy]ethoxy]-acetyl]amino]butanoyl]-[Arg4,Pro9,Lys10,Gln18,Tyr28,Trp30,Leu31]-PYY(4-36)], the figures for the inhibitory constant (Ki) at human Y1 receptor and at human Y5 receptor were above 10000 nM and 279 nM, respectively.
For the molecule `CC(C)CC(=O)N[C@@H](CCCNC(=N)N)C(=O)N1CCC[C@H]1C(=O)N[C@@H](CCC(=O)O)C(=O)N[C@@H](C)C(=O)N1CCC[C@H]1C(=O)NCC(=O)N[C@@H](CCCCNC(=O)CC[C@H](NC(=O)COCCOCCNC(=O)CC[C@H](NC(=O)CCCCCCCCCCCCCCCCC(=O)O)C(=O)O)C(=O)O)C(=O)N[C@@H](CC(=O)O)C(=O)N[C@@H](C)C(=O)N[C@@H](CO)C(=O)N1CCC[C@H]1C(=O)N[C@@H](CCC(=O)O)C(=O)N[C@@H](CCC(=O)O)C(=O)N[C@@H](CC(C)C)C(=O)N[C@@H](CCC(N)=O)C(=O)N[C@@H](CCCNC(=N)N)C(=O)N[C@@H](Cc1ccc(O)cc1)C(=O)N[C@@H](Cc1ccc(O)cc1)C(=O)N[C@@H](C)C(=O)N[C@@H](CO)C(=O)N[C@@H](CC(C)C)C(=O)N[C@@H](CCCNC(=N)N)C(=O)N[C@@H](Cc1c[nH]cn1)C(=O)N[C@@H](Cc1ccc(O)cc1)C(=O)N[C@@H](Cc1ccc(O)cc1)C(=O)N[C@@H](CC(N)=O)C(=O)N[C@@H](Cc1c[nH]c2ccccc12)C(=O)N[C@@H](CC(C)C)C(=O)N[C@H](C(=O)N[C@@H](CCCNC(=N)N)C(=O)N[C@@H](CCC(N)=O)C(=O)N[C@@H](CCCNC(=N)N)C(=O)N[C@@H](Cc1ccc(O)cc1)C(N)=O)[C@@H](C)O` [Compound 59, N{alpha-4}-(3-Methylbutanoyl)-N{Epsilon-10}-[(4S)-4-carboxy-4-[[2-[2-[2-[[(4S)-4-carboxy-4-(17-carboxyheptadecanoylamino)butanoyl]amino]ethoxy]ethoxy]-acetyl]amino]butanoyl]-[Arg4,Lys10,Gln18,Tyr28,Trp30,Leu31]-PYY-(4-36)], the Ki at human Y1 receptor is above 10000 nM; at human Y5 receptor, 279 nM.
